In patent US20260242353A1, “HETEROARYL DERIVATIVES AS DDRs INHIBITORS” (CHIESI FARMACEUTICI S.P.A., priority 2022, published 2026) one finds Ki data, which are given here for 23 compounds.

For one assay, the target named is T1, DDR2 (Homo sapiens, UniProt Q16832).
T1 construct: purchased Life Technologies
T1 sequence (Q16832 22-855): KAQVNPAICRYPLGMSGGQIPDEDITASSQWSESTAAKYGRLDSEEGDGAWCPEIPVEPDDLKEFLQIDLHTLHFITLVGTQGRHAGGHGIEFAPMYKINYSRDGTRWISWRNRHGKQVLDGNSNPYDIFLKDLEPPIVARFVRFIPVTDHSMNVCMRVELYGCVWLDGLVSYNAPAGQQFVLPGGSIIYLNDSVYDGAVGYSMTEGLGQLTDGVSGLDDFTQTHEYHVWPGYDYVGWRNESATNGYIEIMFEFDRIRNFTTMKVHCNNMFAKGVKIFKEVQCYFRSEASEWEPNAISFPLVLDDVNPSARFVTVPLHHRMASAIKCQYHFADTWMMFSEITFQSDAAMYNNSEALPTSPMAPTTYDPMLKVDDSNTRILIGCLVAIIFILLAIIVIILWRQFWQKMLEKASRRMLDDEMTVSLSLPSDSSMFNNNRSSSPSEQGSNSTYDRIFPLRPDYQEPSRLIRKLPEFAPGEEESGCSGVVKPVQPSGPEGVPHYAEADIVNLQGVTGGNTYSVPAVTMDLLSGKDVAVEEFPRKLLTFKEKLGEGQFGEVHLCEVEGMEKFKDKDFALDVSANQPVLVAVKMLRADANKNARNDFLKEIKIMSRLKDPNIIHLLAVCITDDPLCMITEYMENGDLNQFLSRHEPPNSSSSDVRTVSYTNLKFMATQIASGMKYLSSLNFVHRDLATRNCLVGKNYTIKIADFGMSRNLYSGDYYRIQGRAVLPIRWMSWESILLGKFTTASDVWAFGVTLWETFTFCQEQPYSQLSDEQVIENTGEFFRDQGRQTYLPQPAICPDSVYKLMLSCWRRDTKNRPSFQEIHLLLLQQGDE
Description: LanthaScreen Europium Kinase Binding assay, DDR2. The settings on record: 5 nM DDR2, 10 nM Kinase Tracer 178, 1 h at rt; Ki from IC50 by Cheng-Prusoff; read-out: Ki DDR2. An outline of the steps:
(§1)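 Compounds were incubated 1 h at rt with 5 nM DDR1 plus 20 nM Kinase Tracer 178, or 5 nM DDR2 plus 10 nM tracer, and 2 nM Eu anti-GST antibody in HEPES pH 7.5 buffer. Read-out was the TR-FRET 665/615 nm ratio. IC50 came from a 4-parameter fit and was converted to Ki by Cheng-Prusoff.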

The next assay has as its target T2, DDR1 (Homo sapiens, UniProt Q08345).
T2 construct: purchased Carna Biosciences
The experiment in a line: LanthaScreen Europium Kinase Binding assay, DDR1. The settings on record: 5 nM DDR1, 20 nM Kinase Tracer 178, 1 h at rt; Ki from IC50 by Cheng-Prusoff; read-out: Ki DDR1. Put shortly:
as §1
On the technique in general: Time-resolved FRET reads energy transfer from a long-lived donor to a nearby acceptor.

T2 sequence (Q08345 19-913): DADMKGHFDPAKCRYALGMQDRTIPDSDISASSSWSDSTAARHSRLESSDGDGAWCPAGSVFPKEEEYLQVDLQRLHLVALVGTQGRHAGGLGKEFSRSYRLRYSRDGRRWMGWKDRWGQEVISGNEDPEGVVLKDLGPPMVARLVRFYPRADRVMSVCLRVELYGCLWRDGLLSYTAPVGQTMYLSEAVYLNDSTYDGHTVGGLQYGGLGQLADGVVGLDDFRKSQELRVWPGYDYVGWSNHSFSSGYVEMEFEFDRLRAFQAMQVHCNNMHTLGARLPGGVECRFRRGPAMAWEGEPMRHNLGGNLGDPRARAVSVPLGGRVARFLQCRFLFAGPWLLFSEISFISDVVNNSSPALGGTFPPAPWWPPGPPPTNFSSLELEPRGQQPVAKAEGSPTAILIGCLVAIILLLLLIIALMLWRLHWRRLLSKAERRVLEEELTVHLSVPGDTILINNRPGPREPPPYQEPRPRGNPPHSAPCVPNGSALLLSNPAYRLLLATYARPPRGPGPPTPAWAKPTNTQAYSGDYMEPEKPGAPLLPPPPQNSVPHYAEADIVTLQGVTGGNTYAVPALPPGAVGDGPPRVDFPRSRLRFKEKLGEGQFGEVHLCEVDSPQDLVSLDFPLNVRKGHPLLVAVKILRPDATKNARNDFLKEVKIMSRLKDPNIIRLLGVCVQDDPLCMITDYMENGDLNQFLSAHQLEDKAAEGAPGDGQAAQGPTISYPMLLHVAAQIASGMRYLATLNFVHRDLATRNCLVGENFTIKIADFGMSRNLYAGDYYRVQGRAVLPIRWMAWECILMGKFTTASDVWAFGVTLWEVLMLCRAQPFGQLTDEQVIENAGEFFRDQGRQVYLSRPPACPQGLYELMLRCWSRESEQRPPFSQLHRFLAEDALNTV

Broadly, the Ki is a measure of affinity in units of concentration, obtained from inhibition or displacement. With `Cc1ccc(C(=O)Nc2cncc(C(F)(F)F)c2)cc1[C@@H]1CCN(c2cnn3ccc(N4CCN(C)CC4)nc23)C1` [Example 83, (S)-4-methyl-3-(1-(5-(4-methylpiperazin-1-yl)pyrazolo[1,5-a]pyrimidin-3-yl)pyrrolidin-3-yl)-N-(5-(trifluoromethyl)pyridin-3-yl)benzamide], the Ki on DDR2 is 5 to 25 nM; at DDR1, under 5 nM.

`Cc1ccc(C(=O)Nc2cncc(C(F)(F)F)c2)cc1[C@@H]1CCN(c2cnc3ccc(N4CCOCC4)nn23)C1` [Example 84, (S)-4-methyl-3-(1-(6-morpholinoimidazo[1,2-b]pyridazin-3-yl)pyrrolidin-3-yl)-N-(5-(trifluoromethyl)pyridin-3-yl)benzamide]: the Ki on DDR2 is 5 to 25 nM; on DDR1 it was under 5 nM.

Turning to `CC(=O)Nc1cc(N2CC[C@@H](c3cc(C(=O)Nc4cncc(C(F)(F)F)c4)ccc3C)C2)ccn1` [Example 85, (S)-3-(1-(2-acetamidopyridin-4-yl)pyrrolidin-3-yl)-4-methyl-N-(5-(trifluoromethyl)pyridin-3-yl)benzamide], the values for the Ki at DDR2 and at DDR1 were 5 to 25 nM and under 5 nM, respectively.

On to `Cc1ccn2ncc(N3CC[C@@H](c4cc(C(=O)Nc5cncc(C(F)(F)F)c5)ccc4C)C3)c2n1` [Example 86, (S)-4-methyl-3-(1-(5-methylpyrazolo[1,5-a]pyrimidin-3-yl)pyrrolidin-3-yl)-N-(5-(trifluoromethyl)pyridin-3-yl)benzamide], for which the Ki is 5 to 25 nM at DDR2 and under 5 nM on DDR1.

Take `CNC(=O)c1cc(N2CC[C@@H](c3cc(C(=O)Nc4cncc(C(F)(F)F)c4)ccc3C)C2)ccn1` [Example 87, (S)-N-methyl-4-(3-(2-methyl-5-((5-(trifluoromethyl)pyridin-3-yl)carbamoyl)phenyl)pyrrolidin-1-yl)picolinamide]: the values for the inhibition constant Ki on DDR2 and on DDR1 were 5 to 25 nM and under 5 nM, respectively.

For `Cc1ccc(C(=O)Nc2cncc(C(F)(F)F)c2)cc1[C@@H]1CCN(c2cnn(C)c2)C1` [Example 88, (S)-4-methyl-3-(1-(1-methyl-1H-pyrazol-4-yl)pyrrolidin-3-yl)-N-(5-(trifluoromethyl)pyridin-3-yl)benzamide], the inhibitory constant (Ki) at DDR2 and on DDR1 was 5 to 25 nM in each case.

As to `Cc1ccc(C(=O)Nc2cncc(C(F)(F)F)c2)cc1[C@@H]1CCN(c2cnn3ccc(C(=O)N4CCOCC4)cc23)C1` [Example 89, (S)-4-methyl-3-(1-(5-(morpholine-4-carbonyl)pyrazolo[1,5-a]pyridin-3-yl)pyrrolidin-3-yl)-N-(5-(trifluoromethyl)pyridin-3-yl)benzamide], the Ki was 5 to 25 nM on DDR2 and under 5 nM at DDR1.

For the compound `Cc1ccc(C(=O)Nc2cc(OC(F)F)ccn2)cc1[C@@H]1CCN(c2cnn3cccnc23)C1` [Example 91, N-[4-(difluoromethoxy)-2-pyridyl]-4-methyl-3-[(3S)-1-pyrazolo[1,5-a]pyrimidin-3-ylpyrrolidin-3-yl]benzamide], the Ki on DDR2 and at DDR1 was under 5 nM throughout.

As for `Cc1ccc(C(=O)Nc2cc(OC(F)F)ccn2)cc1[C@@H]1CCN(c2cnccn2)C1` [Example 92, N-[4-(difluoromethoxy)-2-pyridyl]-4-methyl-3-[(3S)-1-pyrazin-2-ylpyrrolidin-3-yl]benzamide], the results for the Ki on DDR2 and on DDR1 were 5 to 25 nM and under 5 nM, respectively.

As for `Cc1ccc(C(=O)Nc2cc(OC(F)F)ccn2)cc1[C@@H]1CCN(c2cnccc2C#N)C1` [Example 93, 3-[(3S)-1-(4-cyano-3-pyridyl)pyrrolidin-3-yl]-N-[4-(difluoromethoxy)-2-pyridyl]-4-methyl-benzamide], the Ki at DDR2 and on DDR1 was under 5 nM each time.

Turning to `Cc1ccc(C(=O)Nc2cc(OC(F)F)ccn2)cc1[C@@H]1CCN(c2cncc(C#N)n2)C1` [Example 94, (S)-3-(1-(6-cyanopyrazin-2-yl)pyrrolidin-3-yl)-N-(4-(difluoromethoxy)pyridin-2-yl)-4-methyl-benzamide], the values for the inhibition constant (Ki) on DDR2 and on DDR1 were 5 to 25 nM and under 5 nM, respectively.

`CCc1cc(NC(=O)c2ccc(C)c([C@@H]3CCN(c4cnn5cccnc45)C3)c2)no1` [Example 95, (S)-N-(5-ethylisoxazol-3-yl)-4-methyl-3-(1-(pyrazolo[1,5-a]pyrimidin-3-yl)pyrrolidin-3-yl)benzamide]: the Ki at DDR2 and on DDR1 was under 5 nM each time.

As for `CCc1cc(NC(=O)c2ccc(C)c([C@@H]3CCN(c4cnn5ccncc45)C3)c2)no1` [Example 96, (S)-N-(5-ethylisoxazol-3-yl)-4-methyl-3-(1-(pyrazolo[1,5-a]pyrazin-3-yl)pyrrolidin-3-yl)benzamide], the inhibition constant (Ki) on DDR2 and at DDR1 was under 5 nM in each case.

Consider `COc1cnc2c(N3CC[C@@H](c4cc(C(=O)Nc5cncc(C(F)(F)F)c5)ccc4C)C3)cnn2c1` [Example 97, (S)-3-(1-(6-methoxypyrazolo[1,5-a]pyrimidin-3-yl)pyrrolidin-3-yl)-4-methyl-N-(5-(trifluoromethyl)pyridin-3-yl)benzamide], for which the Ki at DDR2 was 5 to 25 nM; at DDR1 it was under 5 nM.

Regarding `Cc1ccc(C(=O)Nc2cncc(OC(F)(F)F)c2)cc1[C@@H]1CCN(c2cnn3ccncc23)C1` [Example 98, (S)-4-methyl-3-(1-(pyrazolo[1,5-a]pyrazin-3-yl)pyrrolidin-3-yl)-N-(5-(trifluoromethoxy)pyridin-3-yl)benzamide], the inhibition constant Ki at DDR2 and at DDR1 was under 5 nM throughout.

Take `CNc1ncc(N2CC[C@@H](c3cc(C(=O)Nc4cncc(C(F)(F)F)c4)ccc3C)C2)cn1` [Example 99, (S)-4-methyl-3-(1-(2-(methylamino)pyrimidin-5-yl)pyrrolidin-3-yl)-N-(5-(trifluoromethyl)pyridin-3-yl)benzamide]: the Ki on DDR2 is 5 to 25 nM; at DDR1 it was under 5 nM.

Turning to `Cc1ccc(C(=O)Nc2cncc(C(F)(F)F)c2)cc1[C@@H]1CCN(c2cn[nH]c2)C1` [Example 100, (S)-3-(1-(1H-pyrazol-4-yl)pyrrolidin-3-yl)-4-methyl-N-(5-(trifluoromethyl)pyridin-3-yl)benzamide], the inhibition constant (Ki) on DDR2 is 5 to 25 nM; at DDR1 it was under 5 nM.

Regarding `Cc1ccc(C(=O)Nc2cncc(C(F)(F)F)c2)cc1[C@@H]1CCN(c2cnc3[nH]nc(CN(C)C)c3c2)C1` [Example 101, (S)-3-(1-(3-((dimethylamino)methyl)-1H-pyrazolo[3,4-b]pyridin-5-yl)pyrrolidin-3-yl)-4-methyl-N-(5-(trifluoromethyl)pyridin-3-yl)benzamide], the Ki on DDR2 was 5 to 25 nM; at DDR1, under 5 nM.

Turning to `Cc1ccc(C(=O)Nc2cncc(C(F)(F)F)c2)cc1[C@@H]1CCN(c2cnc3[nH]cc(C(=O)NC4COC4)c3c2)C1` [Example 102, (S)-5-(3-(2-methyl-5-((5-(trifluoromethyl)pyridin-3-yl)carbamoyl)phenyl)pyrrolidin-1-yl)-N-(oxetan-3-yl)-1H-pyrrolo[2,3-b]pyridine-3-carboxamide], the Ki on DDR2 is 5 to 25 nM; on DDR1, under 5 nM.

Take `Cc1ccc(C(=O)Nc2cncc(C(F)(F)F)c2)cc1[C@@H]1CCN(c2cncc(OCCO)c2)C1` [Example 103, (S)-3-(1-(5-(2-hydroxyethoxy)pyridin-3-yl)pyrrolidin-3-yl)-4-methyl-N-(5-(trifluoromethyl)pyridin-3-yl)benzamide]: the Ki on DDR2 and on DDR1 was under 5 nM throughout.

As for `Cc1ccc(C(=O)Nc2cncc(C(F)(F)F)c2)cc1[C@@H]1CCN(c2ncnc3sccc23)C1` [Example 106, (S)-4-methyl-3-(1-(thieno[2,3-d]pyrimidin-4-yl)pyrrolidin-3-yl)-N-(5-(trifluoromethyl)pyridin-3-yl)benzamide], the Ki at DDR2 and at DDR1 was 5 to 25 nM each time.

Consider `Cc1ccc(C(=O)Nc2cncc(C(F)(F)F)c2)cc1[C@@H]1CCN(c2ncnc3ccsc23)C1` [Example 107, (S)-4-methyl-3-(1-(thieno[3,2-d]pyrimidin-4-yl)pyrrolidin-3-yl)-N-(5-(trifluoromethyl)pyridin-3-yl)benzamide], for which the Ki on DDR2 and on DDR1 was under 5 nM each time.

On to `CNC(=O)c1cc2ncnc(N3CC[C@@H](c4cc(C(=O)Nc5cncc(C(F)(F)F)c5)ccc4C)C3)c2s1` [Example 108, (S)-N-methyl-4-(3-(2-methyl-5-((5-(trifluoromethyl)pyridin-3-yl)carbamoyl)phenyl)pyrrolidin-1-yl)thieno[3,2-d]pyrimidine-6-carboxamide], for which the Ki on DDR2 and at DDR1 was under 5 nM in each case.
